# Data published in patent US8304448B2, “Method for the treatment of metabolic disorder containing benzazole derivatives as an active ingredient” (Korea Research Institute of Bioscience and Biotechnology, priority 2006, dated 2012).
# Tested on: ICR mice fed a high-fat diet
# Experiment: In vivo assay for anti-obesity activity in mice fed a high-fat diet
# Set-up: species or system mouse
# Experimental: Also, the derivatives of Chemical Formula 1 were tested for resistance to obesity by iterative oral administration at a dose of 10 mg/kg into ICR male mice (refer to Example 3). […] When they were administered, the levels of total triglycerides, total cholesterols, and low density lipoprotein (LDL)-cholesterol in the blood recovered to almost normal levels, with a significant increase observed in the level of high density lipoprotein (HDL)-cholesterol in the blood (refer to Tables 6 and 7 and FIGS. 3 and 4).
# In order to verify the anti-obesity activity of the benzaldehyde derivatives of Chemical Formula 1 in accordance with the present invention, Compounds 22 and 31 were administered repetitively into rodents as follows.
# The experimental animals were 6 week old ICR mice which were purchased from Japan SLC, Inc. via Central Lab. Animal Inc. Korea. They were acclimated to a new environment for one week before use, and fed with a foodstuff commercially available from Deyts, U.S.A. They were bred in an animal lab set at a temperature of 23±3° C. and RH 50±10% under light of 150˜300 Lux for a period of 12 hours (6 a.m.˜6 p.m.) with ventilation 10-20 times/hour. All of the 12 mice used were male, and were organized into two groups of 6. The test group was orally administered once a day at 4 p.m. with 10 mg/kg of the compound (Chemical Formula 1) in the form of a solution in biological saline for 35 days while the control was administered with biological saline only. Xenical, a commercially available lipase inhibitor, was administered orally at a dose of 10 mg/kg once a day as a positive control drug.
# The animals were measured for body weight every week and sacrificed on Day 35, after which blood from the heart was sampled. Abdominal fat, epididymal fat, retroperitoneal fat and the liver were excised and weighed. Blood samples were assayed for total triglyceride, total cholesterol, HDL-cholesterol and LDL-cholesterol using respective test kits, all commercially available from Asan Pharmaceutical Co. Ltd., Korea.
# For evidence of anti-obesity activity, compounds 22 and 31 were orally administered at regular intervals at a dose of 10 mg/kg into ICR male mice for a predetermined period of time with the concurrent provision of conditional diets thereto. Anatomized abdomens of the animals are given in the photographs of FIG. 2.
# [1] = Day 35, high-fat diet, 10 mg/kg oral, Mean ± SD
# [2] = blood, Day 35, high-fat diet, 10 mg/kg oral, Mean ± SD
structure (smiles),measurement,setting,value
"O=C(NCc1ccco1)c1ccc2oc(COc3ccc(C45CC6CC(CC(C6)C4)C5)cc3)nc2c1 [Cpd. 22, 2-(4-adamantan-1-yl-phenoxymethyl)-benzoxazole-5-carboxylic acid (furan-2-ylmethyl)-amide]",abdominal fat increment (FIG. 2),"10 mg/kg, compared to groups fed only the high-fat diet, final day",significantly decreased
same,(Tissue Weight/Body Weight) × 100 Abdominal Fat + Epididymal Fat,[1],3.97 ± 0.72
same,(Tissue Weight/Body Weight) × 100 Liver,[1],4.66 ± 0.65
same,(Tissue Weight/Body Weight) × 100 Retroperitoneal Fat,[1],1.24 ± 1.31
same,(Tissue Weight/Body Weight) × 100 Total Fat,[1],5.24 ± 0.91
same,HDL-Cholesterol,[2],21.66 ± 2.16 mg/dL
same,LDL-Cholesterol,[2],37.57 ± 15.14 mg/dL
same,Total Cholesterol,[2],68.89 ± 14.95 mg/dL
same,Total Triglyceride,[2],48.33 ± 9.83 mg/dL
same,inhibition of body weight gain,"high-fat diet, 10 mg/kg oral once a day for 35 days",68%
same,Body Weight (g) (Mean ± SD) Week 0,"high-fat diet, 10 mg/kg oral once a day, Week 0",26.30 ± 1.27 g
same,Body Weight (g) (Mean ± SD) Week 1,"high-fat diet, 10 mg/kg oral once a day, Week 1",34.75 ± 1.75 g
same,Body Weight (g) (Mean ± SD) Week 2,"high-fat diet, 10 mg/kg oral once a day, Week 2",37.94 ± 2.33 g
same,Body Weight (g) (Mean ± SD) Week 3,"high-fat diet, 10 mg/kg oral once a day, Week 3",40.34 ± 3.39 g
same,Body Weight (g) (Mean ± SD) Week 4,"high-fat diet, 10 mg/kg oral once a day, Week 4",42.48 ± 2.90 g
same,Body Weight (g) (Mean ± SD) Week 5,"high-fat diet, 10 mg/kg oral once a day, Week 5",43.90 ± 1.20 g
